Laboratory results: US9682995B2, “Amino-substituted isothiazoles” (BAYER PHARMA AKTIENGESELLSCHAFT, priority 2013, dated 2017)

Columns and labels:
Assay in all cases: Kinase Profiling (KINOMEscan)
Assay type in all cases: binding
[1] = target: 456 kinases (of these 395 non-mutant kinases) (Homo sapiens, UniProt Q9UKE5); settings: TNIK; 10 μM
[2] = target: 456 kinases (of these 395 non-mutant kinases) (Homo sapiens, UniProt O15197); settings: EPHB6; 10 μM
[3] = target: 456 kinases (of these 395 non-mutant kinases) (Homo sapiens, UniProt P0C264); settings: SgK110; 10 μM
[4] = target: 456 kinases (of these 395 non-mutant kinases) (Homo sapiens, UniProt P51812); settings: 10 μM
[5] = target: 456 kinases (of these 395 non-mutant kinases) (Homo sapiens, UniProt P27448); settings: MARK3; 10 μM
[6] = target: 456 kinases (of these 395 non-mutant kinases) (Homo sapiens, UniProt P00519, E255K); settings: ABL1(E255K)-phosphorylated; 10 μM
[7] = target: 456 kinases (of these 395 non-mutant kinases) (Homo sapiens, UniProt P50750); settings: CDK9; 10 μM
[8] = target: 456 kinases (of these 395 non-mutant kinases) (Homo sapiens, UniProt Q13705); settings: ACVR2B; 10 μM
[9] = target: 456 kinases (of these 395 non-mutant kinases) (Homo sapiens, UniProt Q7L7X3); settings: TAOK1; 10 μM
[10] = target: 456 kinases (of these 395 non-mutant kinases) (Homo sapiens, UniProt P54756); settings: EPHA5; 10 μM
[11] = target: 456 kinases (of these 395 non-mutant kinases) (Homo sapiens, UniProt Q15759); settings: p38-beta; 10 μM
[12] = target: 456 kinases (of these 395 non-mutant kinases) (Homo sapiens, UniProt P53778); settings: p38-gamma; 10 μM
[13] = target: 456 kinases (of these 395 non-mutant kinases) (Homo sapiens, UniProt P42336, E542K); settings: PIK3CA(E542K); 10 μM
[14] = target: 456 kinases (of these 395 non-mutant kinases) (Homo sapiens, UniProt P57078); settings: RIPK4; 10 μM
[15] = target: 456 kinases (of these 395 non-mutant kinases) (Homo sapiens, UniProt Q13976); settings: PRKG1; 10 μM
[16] = target: 456 kinases (of these 395 non-mutant kinases) (Homo sapiens, UniProt P49760); settings: CLK2; 10 μM
[17] = target: 456 kinases (of these 395 non-mutant kinases) (Homo sapiens, UniProt P06213); settings: INSR; 10 μM
[18] = target: 456 kinases (of these 395 non-mutant kinases) (Homo sapiens, UniProt Q9H2K8); settings: TAOK3; 10 μM
[19] = target: 456 kinases (of these 395 non-mutant kinases) (Homo sapiens, UniProt Q16584); settings: MLK3; 10 μM
[20] = target: 456 kinases (of these 395 non-mutant kinases) (Homo sapiens, UniProt Q16620); settings: TRKB; 10 μM
[21] = target: 456 kinases (of these 395 non-mutant kinases) (Homo sapiens, UniProt Q14680); settings: MELK; 10 μM
[22] = target: 456 kinases (of these 395 non-mutant kinases) (Homo sapiens, UniProt O14733); settings: MKK7; 10 μM
[23] = target: 456 kinases (of these 395 non-mutant kinases) (Homo sapiens, UniProt O75385); settings: ULK1; 10 μM
[24] = target: 456 kinases (of these 395 non-mutant kinases) (Homo sapiens, UniProt P08631); settings: HCK; 10 μM
[25] = target: 456 kinases (of these 395 non-mutant kinases) (Homo sapiens, UniProt Q9BQI3); settings: EIF2AK1; 10 μM
[26] = target: 456 kinases (of these 395 non-mutant kinases) (Homo sapiens, UniProt P36888, D835Y); settings: FLT3(D835Y); 10 μM
[27] = target: 456 kinases (of these 395 non-mutant kinases) (Homo sapiens, UniProt P08581); settings: MET; 10 μM
[28] = target: 456 kinases (of these 395 non-mutant kinases) (Homo sapiens, UniProt P51956); settings: NEK3; 10 μM
[29] = target: 456 kinases (of these 395 non-mutant kinases) (Homo sapiens, UniProt P42338); settings: PIK3CB; 10 μM
[30] = target: 456 kinases (of these 395 non-mutant kinases) (Homo sapiens, UniProt P42336, I800L); settings: PIK3CA(I800L); 10 μM
[31] = target: 456 kinases (of these 395 non-mutant kinases) (Homo sapiens, UniProt Q9P289); settings: MST4; 10 μM
Sequence of 456 kinases (of these 395 non-mutant kinases) (Homo sapiens, UniProt Q9P289) (Q9P289 2-416 limits assumed, change not shown): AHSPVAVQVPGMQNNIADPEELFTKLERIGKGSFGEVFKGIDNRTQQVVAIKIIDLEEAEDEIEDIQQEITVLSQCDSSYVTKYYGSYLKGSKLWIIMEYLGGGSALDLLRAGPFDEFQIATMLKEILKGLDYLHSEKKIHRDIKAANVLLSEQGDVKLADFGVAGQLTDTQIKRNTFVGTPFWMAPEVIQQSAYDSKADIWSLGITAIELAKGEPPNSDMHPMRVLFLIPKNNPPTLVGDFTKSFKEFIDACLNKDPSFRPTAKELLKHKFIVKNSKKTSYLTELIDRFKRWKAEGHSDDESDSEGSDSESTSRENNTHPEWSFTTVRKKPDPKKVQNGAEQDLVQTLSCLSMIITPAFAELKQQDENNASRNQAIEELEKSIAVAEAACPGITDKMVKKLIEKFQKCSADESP

Sequence of 456 kinases (of these 395 non-mutant kinases) (Homo sapiens, UniProt Q13976) (Q13976 2-671 limits assumed, change not shown): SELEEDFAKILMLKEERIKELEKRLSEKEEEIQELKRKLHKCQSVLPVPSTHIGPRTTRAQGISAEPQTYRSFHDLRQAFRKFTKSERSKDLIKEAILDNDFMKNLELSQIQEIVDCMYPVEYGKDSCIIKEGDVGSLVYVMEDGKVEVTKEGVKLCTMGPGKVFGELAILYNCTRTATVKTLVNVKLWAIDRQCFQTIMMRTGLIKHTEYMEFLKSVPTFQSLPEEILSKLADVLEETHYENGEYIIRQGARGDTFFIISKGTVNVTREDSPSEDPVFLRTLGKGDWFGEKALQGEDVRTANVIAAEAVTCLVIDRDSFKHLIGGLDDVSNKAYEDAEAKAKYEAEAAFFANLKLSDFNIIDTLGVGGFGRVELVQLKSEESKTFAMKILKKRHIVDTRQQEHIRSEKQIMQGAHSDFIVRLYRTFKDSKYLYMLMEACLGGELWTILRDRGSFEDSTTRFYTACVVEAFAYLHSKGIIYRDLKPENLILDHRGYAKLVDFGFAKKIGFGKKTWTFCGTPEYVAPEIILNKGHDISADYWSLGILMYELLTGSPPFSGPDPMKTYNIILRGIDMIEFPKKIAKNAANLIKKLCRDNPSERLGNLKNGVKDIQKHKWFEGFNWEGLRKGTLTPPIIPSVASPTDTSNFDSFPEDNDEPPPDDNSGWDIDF
Sequence of 456 kinases (of these 395 non-mutant kinases) (Homo sapiens, UniProt Q16620) (Q16620 32-822 limits assumed, change not shown): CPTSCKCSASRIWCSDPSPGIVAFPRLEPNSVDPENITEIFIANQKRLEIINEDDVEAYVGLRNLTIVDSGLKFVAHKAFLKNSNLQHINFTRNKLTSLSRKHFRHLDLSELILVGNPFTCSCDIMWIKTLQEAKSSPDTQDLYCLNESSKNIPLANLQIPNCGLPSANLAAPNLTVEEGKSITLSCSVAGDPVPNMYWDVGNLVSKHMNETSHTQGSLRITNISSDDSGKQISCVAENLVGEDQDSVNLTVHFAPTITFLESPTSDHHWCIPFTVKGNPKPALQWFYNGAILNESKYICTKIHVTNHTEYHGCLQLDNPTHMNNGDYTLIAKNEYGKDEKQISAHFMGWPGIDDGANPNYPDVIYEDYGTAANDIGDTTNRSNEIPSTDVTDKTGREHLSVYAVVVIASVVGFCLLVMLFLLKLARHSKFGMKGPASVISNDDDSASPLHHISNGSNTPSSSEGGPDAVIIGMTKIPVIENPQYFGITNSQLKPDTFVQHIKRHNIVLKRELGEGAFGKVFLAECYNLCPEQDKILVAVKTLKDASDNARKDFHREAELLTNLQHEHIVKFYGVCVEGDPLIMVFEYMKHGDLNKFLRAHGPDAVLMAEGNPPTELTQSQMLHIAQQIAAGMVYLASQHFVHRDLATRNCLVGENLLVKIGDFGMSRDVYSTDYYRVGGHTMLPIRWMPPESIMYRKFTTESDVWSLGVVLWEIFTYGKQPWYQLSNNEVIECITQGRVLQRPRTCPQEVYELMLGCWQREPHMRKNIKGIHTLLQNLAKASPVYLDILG
Sequence of 456 kinases (of these 395 non-mutant kinases) (Homo sapiens, UniProt P08631) (P08631 2-526 limits assumed, change not shown): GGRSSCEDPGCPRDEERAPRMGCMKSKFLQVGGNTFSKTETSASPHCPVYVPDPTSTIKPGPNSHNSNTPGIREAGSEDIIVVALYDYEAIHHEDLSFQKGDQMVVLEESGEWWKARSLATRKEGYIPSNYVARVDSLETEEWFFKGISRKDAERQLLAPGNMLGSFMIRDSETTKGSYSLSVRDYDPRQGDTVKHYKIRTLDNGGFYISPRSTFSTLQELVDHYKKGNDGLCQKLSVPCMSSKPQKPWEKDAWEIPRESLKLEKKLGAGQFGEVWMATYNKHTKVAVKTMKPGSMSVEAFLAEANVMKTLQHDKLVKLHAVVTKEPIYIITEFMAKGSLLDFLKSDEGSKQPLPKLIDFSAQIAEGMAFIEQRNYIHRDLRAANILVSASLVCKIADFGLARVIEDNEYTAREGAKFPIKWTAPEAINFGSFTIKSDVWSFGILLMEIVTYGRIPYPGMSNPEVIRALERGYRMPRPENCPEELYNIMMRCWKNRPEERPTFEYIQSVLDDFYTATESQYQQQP
Sequence of 456 kinases (of these 395 non-mutant kinases) (Homo sapiens, UniProt O14733) (O14733 2-419 limits assumed, change not shown): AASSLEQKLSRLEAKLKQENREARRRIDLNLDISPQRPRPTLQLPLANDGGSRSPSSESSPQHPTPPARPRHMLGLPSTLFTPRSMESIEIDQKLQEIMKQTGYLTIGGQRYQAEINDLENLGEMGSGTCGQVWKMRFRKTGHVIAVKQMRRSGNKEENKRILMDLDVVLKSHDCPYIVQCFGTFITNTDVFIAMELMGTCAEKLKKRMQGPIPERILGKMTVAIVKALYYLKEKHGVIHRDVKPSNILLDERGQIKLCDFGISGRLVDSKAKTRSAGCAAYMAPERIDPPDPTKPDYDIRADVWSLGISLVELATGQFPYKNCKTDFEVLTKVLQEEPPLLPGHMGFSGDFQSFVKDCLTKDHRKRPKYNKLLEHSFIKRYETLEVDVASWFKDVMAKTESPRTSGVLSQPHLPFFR
Sequence of 456 kinases (of these 395 non-mutant kinases) (Homo sapiens, UniProt Q13705) (Q13705 19-512 limits assumed, change not shown): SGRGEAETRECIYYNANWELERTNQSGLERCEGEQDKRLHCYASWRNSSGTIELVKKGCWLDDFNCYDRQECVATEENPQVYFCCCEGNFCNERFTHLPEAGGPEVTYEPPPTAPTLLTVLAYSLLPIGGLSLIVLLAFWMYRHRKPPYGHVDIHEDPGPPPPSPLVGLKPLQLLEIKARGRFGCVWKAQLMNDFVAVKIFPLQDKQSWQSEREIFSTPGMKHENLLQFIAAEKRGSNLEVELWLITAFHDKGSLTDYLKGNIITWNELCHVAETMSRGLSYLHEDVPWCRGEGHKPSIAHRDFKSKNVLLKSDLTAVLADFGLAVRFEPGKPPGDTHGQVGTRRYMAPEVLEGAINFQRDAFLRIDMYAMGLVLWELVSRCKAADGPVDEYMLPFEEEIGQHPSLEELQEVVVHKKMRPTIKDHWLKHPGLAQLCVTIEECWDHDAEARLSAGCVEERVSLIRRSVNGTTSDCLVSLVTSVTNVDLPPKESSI
Sequence of 456 kinases (of these 395 non-mutant kinases) (Homo sapiens, UniProt O15197) (O15197 32-1021 limits assumed, change not shown): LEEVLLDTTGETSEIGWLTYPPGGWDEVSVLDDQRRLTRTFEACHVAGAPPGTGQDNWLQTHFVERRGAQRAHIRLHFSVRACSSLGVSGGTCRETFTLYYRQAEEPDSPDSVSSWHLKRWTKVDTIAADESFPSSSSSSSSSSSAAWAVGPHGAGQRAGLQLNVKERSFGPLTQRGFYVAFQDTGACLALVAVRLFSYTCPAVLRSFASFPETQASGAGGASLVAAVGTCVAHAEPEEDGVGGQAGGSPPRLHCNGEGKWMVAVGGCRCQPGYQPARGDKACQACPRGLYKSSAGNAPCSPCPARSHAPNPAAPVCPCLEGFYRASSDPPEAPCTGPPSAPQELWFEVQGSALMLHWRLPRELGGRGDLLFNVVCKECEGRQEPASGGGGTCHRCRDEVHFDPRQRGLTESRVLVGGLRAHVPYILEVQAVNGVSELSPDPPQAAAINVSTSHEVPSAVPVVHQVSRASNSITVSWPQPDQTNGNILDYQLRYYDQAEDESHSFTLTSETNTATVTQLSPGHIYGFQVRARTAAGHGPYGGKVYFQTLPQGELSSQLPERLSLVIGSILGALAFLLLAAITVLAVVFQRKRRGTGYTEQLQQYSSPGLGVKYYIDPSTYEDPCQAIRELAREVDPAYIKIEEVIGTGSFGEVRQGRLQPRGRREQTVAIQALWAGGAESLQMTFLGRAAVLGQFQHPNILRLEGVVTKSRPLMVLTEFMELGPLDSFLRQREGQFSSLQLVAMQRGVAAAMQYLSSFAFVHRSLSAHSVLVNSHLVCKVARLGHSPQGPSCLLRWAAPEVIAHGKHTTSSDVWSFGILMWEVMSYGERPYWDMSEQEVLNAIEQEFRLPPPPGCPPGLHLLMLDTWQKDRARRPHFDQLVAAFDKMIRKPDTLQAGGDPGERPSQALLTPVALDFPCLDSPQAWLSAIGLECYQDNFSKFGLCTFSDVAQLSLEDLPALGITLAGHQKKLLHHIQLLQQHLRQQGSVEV

With `CCc1ccccc1NC(=O)c1c(C)nsc1Nc1cnc2cc(F)ccc2n1` [Example 20, N-(2-Ethylphenyl)-5-[(6-fluoroquinoxalin-2-yl)amino]-3-methyl-1,2-thiazole-4-carboxamide] the “% Ctrl @ 10 μM” value [1] was 100 % Ctrl, the “% Ctrl @ 10 μM” value [2] was 92 % Ctrl and the “% Ctrl @ 10 μM” value [3] was 100 % Ctrl. The “% Ctrl @ 10 μM” value ([4]; RSK2(Kin.Dom.1-N-terminal)) was 100 % Ctrl, the “% Ctrl @ 10 μM” value ([4]; RSK2(Kin.Dom.2-C-terminal)) was 100 % Ctrl and the “% Ctrl @ 10 μM” value [5] was 93 % Ctrl. For the same compound, the “% Ctrl @ 10 μM” value [6] was 100 % Ctrl, the “% Ctrl @ 10 μM” value [7] was 100 % Ctrl and the “% Ctrl @ 10 μM” value [8] was 91 % Ctrl. For the same compound, the “% Ctrl @ 10 μM” value [9] was 100 % Ctrl, the “% Ctrl @ 10 μM” value [10] was 99 % Ctrl and the “% Ctrl @ 10 μM” value [11] was 100 % Ctrl. The “% Ctrl @ 10 μM” value [12] was 58 % Ctrl, the “% Ctrl @ 10 μM” value [13] was 81 % Ctrl and the “% Ctrl @ 10 μM” value [14] was 100 % Ctrl. The “% Ctrl @ 10 μM” value [15] was 90 % Ctrl, the “% Ctrl @ 10 μM” value [16] was 77 % Ctrl and the “% Ctrl @ 10 μM” value [17] was 98 % Ctrl. For the same compound, the “% Ctrl @ 10 μM” value [18] was 100 % Ctrl, the “% Ctrl @ 10 μM” value [19] was 90 % Ctrl and the “% Ctrl @ 10 μM” value [20] was 90 % Ctrl. The “% Ctrl @ 10 μM” value [21] was 100 % Ctrl, the “% Ctrl @ 10 μM” value [22] was 100 % Ctrl and the “% Ctrl @ 10 μM” value [23] was 100 % Ctrl. The “% Ctrl @ 10 μM” value [24] was 59 % Ctrl, the “% Ctrl @ 10 μM” value [25] was 100 % Ctrl and the “% Ctrl @ 10 μM” value [26] was 100 % Ctrl. The “% Ctrl @ 10 μM” value [27] was 100 % Ctrl, the “% Ctrl @ 10 μM” value [28] was 97 % Ctrl and the “% Ctrl @ 10 μM” value [29] was 83 % Ctrl. The “% Ctrl @ 10 μM” value [30] was 93 % Ctrl and the “% Ctrl @ 10 μM” value [31] was 100 % Ctrl.
